“Also recorded” adds a separate entry of the source.
How the values were obtained:
[1] = 400° F. (204.4° C.), reported in U.S. Pat. No. 3,770,640; cited from earlier work
[2] = Solubility of dyes in refrigeration oils; details: for Oil Sol. In 3GS: Table I, Suniso 3GS refrigeration oil
Description: Manufacturers of refrigeration equipment generally demand that any refrigeration liquid satisfactorily pass such a sealed tube test before they approve the liquid for use in their equipment. In addition, the solubility of the various dyes in oil and in refrigerant were determined.
Solubility of various dyes in various refrigeration oils was carefully determined according to the following standardized procedure. An excess of the subject dye was added to a given weight (e.g., 100 g) of refrigerant oil. The mixture was stirred for one-half hour with mild heating, whereupon it was cooled to room temperature (about 21° C.) and transferred to a centrifuge tube. The mixture was centrifuged approximately 15 minutes at 1000 rpm. A sample of the supernatant liquid was decanted (1.00 g±0.01 g) and diluted to 100 ml volume with methylene chloride. Aliquot portions were taken and read against the principal absorption peaks by visible light spectroscopy. Wt/wt percentage concentrations were then calculated from proper standard curves.

[3] = Solubility of dyes in halocarbon refrigerants; format: physicochemical; details: for Refr. Sol. In R-12: Table I, refrigerant R-12
Description: Solubilities of various dyes in various halocarbon refrigerants were also determined according to the following standardized procedure. […] The R-11 was allowed to vaporize, leaving a known amount of dye in the bottom portion of the test tube. The tube was then attached to a charging apparatus containing a supply of a given halocarbon refrigerant and various amounts of the refrigerant were charged into the tube while chilling the latter by immersion in liquid nitrogen. The tube containing the dye/refrigerant mixture was sealed under vacuum, allowed to reach room temperature (about 21° C.) and rotated for several hours. Visual inspection of the tube was made at several temperatures to note the degree of dissolution. The procedure was improved over previously used methods in that an exact predetermined amount of dye and refrigerant were made to interact, requiring fewer weighings. Finally, it became possible to use the same tube to check solubility at several different temperatures.

[4] = Sealed tube test of stability of dyes in refrigerant/refrigeration oil with metal coupons; format: physicochemical; details: for Stability, Mean Life: Table I, sealed tube data in R-12 at 350° F.; for stability as measured by the sealed tube test: text summary of Table I, 350° F.
Description: By reference to Table I below it can be appreciated that such ortho substitution has a remarkably beneficial effect on the stability of the dyes in the accelerated sealed tube test used for evaluation. The first three dyes listed, embodying the principles of this invention, routinely withstand in excess of twenty days in the sealed tube test at 350° F. (176.7° C.), equivalent to many years of normal use in a refrigeration system.
The sealed tube test serves as a method of evaluating in an accelerated manner interactions of materials found in a refrigeration system.
Glass tubes and all metal test coupons are scrupulously cleaned. Test refrigerants are distilled to minimize moisture contamination. Moisture is removed from the refrigeration test oil "Suniso" 3GS by subjecting the oil to a vacuum with slight stirring and heating. Ratios of refrigerant/refrigerant oil range from 1:1 to 1:2 by weight.
Refrigerant oil and representative metal coupons of copper #10AWG wire, Swedish valve stock steel, and aluminum metal sheet are placed in a glass tube along with the subject test dye material (0.25-1.0% wt/wt) dissolved in the refrigerant oil. Like samples without the subject dye are analyzed as controls.
The tube and its contents are chilled in a liquid nitrogen bath while the refrigerant is condensed into the tube via a calibrated manometer. The tube is sealed under a vacuum of at least 0.1 torr.
Glass tubes and contents are subjected to uniform heating in a bored aluminum block placed in a temperature-programmed oven.
The oven temperatures used vary according to the test refrigerant, as indicated:
The test is run for one of the following time periods: 5, 14, 21, 30 or 60 days.
The tube contents may be evaluated by several methods:
of these methods, the visual examination is the most rapid and the only qualitative method. Any color change in the subject dye coloration is noted when compared to a control sample.
The quantitative methods involve analysis for decomposition products of chloride as hydrochloric acid or organic products by gas chromatography, infrared spectroscopy, or mass spectroscopy. However, visual inspection and gas chromatography are widely used, and they were selected as standardization procedures for evaluation of sealed tube contents.
R-12 is chemically one of the more reactive refrigerants; thus, short term tests with refrigeration liquids containing this refrigerant admixed with a mineral oil yield the most rapid results. R-22 and R-502 are also used but the decomposition products are more difficult to analyze by gas chromatography. Ultimately the test material must pass interactions involving any of these refrigerants. The visual method can be used empirically on a pass-fail basis. As verified experimentally, visual results are considered as valid as instrumental methods.

| SMILES | stability in the sealed tube test at 400° F. (in words) [1] | solubility in the refrigeration oil (in words) [2] | Oil Sol. In 3GS [2] | solubility in the halocarbon refrigerant (in words) [3] | Solubility in refrigerant ([3]; R-12, 21° C.) | Solubility in refrigerant ([3]; R-22, 21° C.) | Solubility in refrigerant ([3]; R-502, 21° C.) | Refr. Sol. In R-12 [3] | Stability, Mean Life [4] | stability as measured by the sealed tube test [4] |
| --- | --- | --- | --- | --- | --- | --- | --- | --- | --- | --- |
| CCc1cc(CC)c(Nc2ccc(Nc3c(CC)cc(CC)cc3CC)c3c2C(=O)c2ccccc2C3=O)c(CC)c1 [1,4-bis(2,4,6-triethylanilino)anthraquinone] | very unstable; also recorded: so poor as to make this dye commercially unacceptable | – | – | – | – | – | – | – | – | – |
| Cc1cccc(C)c1Nc1ccc(Nc2c(C)cccc2C)c2c1C(=O)c1ccccc1C2=O [Dye No. 2-31, 1,4-Bis(2,6-dimethylanilino)-anthraquinone] | – | relatively high solubility | 0.1% | sufficient solubility | < 0.02 %(wt/wt) | 0.04 %(wt/wt) | < 0.02 %(wt/wt) | < 0.1% | 22.4 days | > 20 days |
| Cc1cc(C)c(Nc2ccc(Nc3c(C)cc(C)cc3C)c3c2C(=O)c2ccccc2C3=O)c(C)c1 [Dye No. 3-25, 1,4-Bis(mesidino)anthraquinone] | – | relatively high solubility | 0.55% | sufficient solubility | – | – | – | < 0.1% | 24.3 days | > 20 days |

Reference: patent publication US4369120A, “Refrigeration liquid with leak indicator and process of using same” (priority 1981, dated 1983)
